# Reference: patent EP4806891A1 (Kangbaida (Sichuan) Biotechnology Co., Ltd., priority 2023, dated 2025)
# Biological target: T1, HEK-Blue-hTLR7 cells (Homo sapiens, UniProt Q9NYK1)
# T1 construct: expressed in transfected cells; host or cells: HEK-Blue-hTLR7 cells (HEK293-derived reporter line)
# T1 sequence (Q9NYK1 27-1049): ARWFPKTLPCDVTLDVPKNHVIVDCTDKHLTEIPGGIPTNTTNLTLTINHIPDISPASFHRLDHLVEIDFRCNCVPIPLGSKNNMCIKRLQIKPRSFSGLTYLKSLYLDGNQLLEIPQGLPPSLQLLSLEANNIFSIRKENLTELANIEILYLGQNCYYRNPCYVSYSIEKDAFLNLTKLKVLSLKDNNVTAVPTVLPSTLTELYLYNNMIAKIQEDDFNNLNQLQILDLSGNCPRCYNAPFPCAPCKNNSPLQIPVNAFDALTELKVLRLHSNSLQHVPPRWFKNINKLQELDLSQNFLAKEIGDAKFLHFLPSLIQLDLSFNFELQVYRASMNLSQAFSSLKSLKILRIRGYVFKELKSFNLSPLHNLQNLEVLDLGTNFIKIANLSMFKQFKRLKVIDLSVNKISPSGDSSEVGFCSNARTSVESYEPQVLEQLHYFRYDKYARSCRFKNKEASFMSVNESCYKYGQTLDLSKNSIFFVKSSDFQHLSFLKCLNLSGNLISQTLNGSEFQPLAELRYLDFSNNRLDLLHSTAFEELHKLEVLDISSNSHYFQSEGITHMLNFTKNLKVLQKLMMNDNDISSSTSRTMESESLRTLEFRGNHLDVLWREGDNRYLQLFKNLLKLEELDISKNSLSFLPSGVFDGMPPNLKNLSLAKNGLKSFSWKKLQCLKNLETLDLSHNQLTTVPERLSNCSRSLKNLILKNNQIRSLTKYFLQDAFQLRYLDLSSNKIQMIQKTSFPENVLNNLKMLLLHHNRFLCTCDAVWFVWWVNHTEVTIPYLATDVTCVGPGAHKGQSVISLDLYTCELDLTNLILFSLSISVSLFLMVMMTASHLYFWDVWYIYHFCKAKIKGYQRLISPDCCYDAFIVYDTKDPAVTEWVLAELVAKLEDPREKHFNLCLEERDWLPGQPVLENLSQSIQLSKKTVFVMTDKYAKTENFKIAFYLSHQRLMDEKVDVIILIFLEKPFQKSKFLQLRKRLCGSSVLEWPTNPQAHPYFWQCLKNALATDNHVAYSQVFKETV
# Experiment: HEK-Blue-hTLR7 cell inhibition assay
# Format: cell-based
# Conditions: R848 0.8 µM, 16 h, OD 620 nm, read-out: TLR7 IC50
# Description: HEK-Blue-hTLR7/8/9 cell inhibition assay
# 1. HEK-Blue-hTLR7/8 cells (1 × 10^4 cells/well) and HEK-Blue-hTLR9 cells (1.5 × 10^4 cells/well) were seeded in a 384-well cell culture plate, with a volume of 30 µL per well. The plate was incubated at 37°C in a 5% CO2 incubator for 4 h. 2. The compound was prepared with DMSO and diluted in DMEM medium to 10 concentrations (1:3 dilution), with final concentrations of 10000, 3333.3, 1111.1, 370.4, 123.5, 41.2, 13.7, 4.6, 1.5, and 0.5 nM; R848 was prepared with DMSO and diluted in DMEM medium, with final concentrations of 0.8 µM (HEK-Blue-hTLR7) and 3 µM (HEK-Blue-hTLR8); ODN2006 was prepared with endotoxin-free water and diluted in DMEM medium, with a final concentration of 1 µM. 3. Cells treated with DMSO were used as the blank control group, while cells treated solely with Resiquimod (R848) were used as the positive control group for HEK-Blue-hTLR7/8, and cells treated solely with ODN2006 were used as the positive control group for HEK-Blue-hTLR9. Cells treated with the test compound together with R848 or ODN2006 were used as the test group. Two parallel wells were set for each group and were placed at 37°C in a 5% CO2 incubator for incubation. 4. After being incubated for 4 h, the 384-well plate of HEK-Blue-hTLR7/8 was taken out from the incubator, and R848 alone or both R848 and the diluted compound were separately added into each well. The plate was placed at 37°C in a 5% CO2 incubator for incubation for 16 h; the 384-well plate of HEK-Blue-hTLR9 was taken out from the incubator, and ODN2006 alone or both ODN2006 and the diluted compound were added separately to each well. The plate was incubated at 37°C in a 5% CO2 incubator for 16 h. 5. After being incubated for 16 h, the 384-well plate was removed from the incubator and centrifuged at 1000 rpm for 1 minute. The optical density value of each well at 620 nm was measured using a multifunctional microplate reader. 6. The cell inhibition rate was calculated as (1-(OD620 test group-OD620 blank group)/(OD620 positive group-OD620 blank group))×100%, and the half maximal inhibitory concentration (IC50) was calculated through curve fitting. Table 1: Activity of the compounds of the present disclosure in HEK-Blue-hTLR7/8/9 cellular assays
row,SMILES,IC50 [µM]
1,"CN1CCN(c2nnc([C@]34CN(c5ccc(C#N)c6ncccc56)C[C@@]3(C(F)(F)F)C4)o2)CC1 [Compound 1, 5-((1S,5R)-1-(5-(4-methylpiperazin-1-yl)-1,3,4-oxadiazol-2-yl)-5-(trifluoromethyl)-3-azabicyclo[3.1.0]hexan-3-yl)quinoline-8-carbonitrile]",< 0.1
2,"Cc1cc(N2CC3(c4nnc(C5CCN(C)CC5)o4)C[C@]3(C(F)(F)F)C2)c2cnn(C)c2n1 (stereo partly drawn) [Compound 2, 2-((5R)-3-(1,6-dimethyl-1H-pyrazolo[3,4-b]pyridin-4-yl)-5-(trifluoromethyl)-3-azabicyclo[3.1.0]hexan-1-yl)-5-(1-methylpiperidin-4-yl)-1,3,4-oxadiazole]",> 1
3,"FC(F)(F)c1ccc(N2C[C@]3(c4nnc(C5(F)CCNCC5)o4)C[C@]3(C(F)(F)F)C2)c2cccnc12 [Compound 3, 2-(4-fluoropiperidin-4-yl)-5-((1S,5R)-5-(trifluoromethyl)-3-(8-(trifluoromethyl)quinolin-5-yl)-3-azabicyclo[3.1.0]hexan-1-yl)-1,3,4-oxadiazole]",< 0.1
4,"CN1CC(c2nnc([C@]34CN(c5ccc(C(F)(F)F)c6ncccc56)C[C@@]3(C(F)(F)F)C4)o2)C1 [Compound 4, 2-(1-methylazetidin-3-yl)-5-((1S,5R)-5-(trifluoromethyl)-3-(8-(trifluoromethyl)quinolin-5-yl)-3-azabicyclo[3.1.0]hexan-1-yl)-1,3,4-oxadiazole]",< 0.1
5,"CN1CCC(c2nnc([C@]34CN(c5ccc(C#N)c6ncccc56)C[C@@]3(C(F)(F)F)C4)n2C)CC1 [Compound 5, 5-((1S,5R)-1-(4-methyl-5-(1-methylpiperidin-4-yl)-4H-1,2,4-triazol-3-yl)-5-(trifluoromethyl)-3-azabicyclo[3.1.0]hexan-3-yl)quinoline-8-carbonitrile]",< 1
6,"CN1CCC(Nc2nnc([C@]34CN(c5ccc(C#N)c6ncccc56)C[C@@]3(C(F)(F)F)C4)o2)CC1 [Compound 6, 5-((1S,5R)-1-(5-((1-methylpiperidin-4-yl)amino)-1,3,4-oxadiazol-2-yl)-5-(trifluoromethyl)-3-azabicyclo[3.1.0]hexan-3-yl)quinoline-8-carbonitrile]",< 0.1
7,"N#Cc1ccc(N2C[C@]3(c4nnc(N)o4)C[C@]3(C(F)(F)F)C2)c2cccnc12 [Compound 7, 5-((1S,5R)-1-(5-amino-1,3,4-oxadiazol-2-yl)-5-(trifluoromethyl)-3-azabicyclo[3.1.0]hexan-3-yl)quinoline-8-carbonitrile]",< 0.1
8,"CN1CCC(C)(c2nnc([C@]34CN(c5ccc(C#N)c6ncccc56)C[C@@]3(C(F)(F)F)C4)o2)CC1 [Compound 8, 5-((1S,5R)-1-(5-(1,4-dimethylpiperidin-4-yl)-1,3,4-oxadiazol-2-yl)-5-(trifluoromethyl)-3-azabicyclo[3.1.0]hexan-3-yl)quinoline-8-carbonitrile]",< 0.1
9,"CN1CCC(c2nnc([C@]34CN(c5ccc(C#N)c6ncccc56)C[C@@]3(C(F)(F)F)C4)[nH]2)CC1 [Compound 9, 5-((1S,5R)-1-(5-(1-methylpiperidin-4-yl)-4H-1,2,4-triazol-3-yl)-5-(trifluoromethyl)-3-azabicyclo[3.1.0]hexan-3-yl)quinoline-8-carbonitrile]",< 0.1
10,"CN1[C@@H]2CC[C@H]1C[C@H](c1nnc([C@]34CN(c5ccc(C#N)c6ncccc56)C[C@@]3(C(F)(F)F)C4)o1)C2 [Compound 11, 5-((1S,5R)-1-(5-((1R,3S,5S)-8-methyl-8-azabicyclo[3.2.1]octan-3-yl)-1,3,4-oxadiazol-2-yl)-5-(trifluoromethyl)-3-azabicyclo[3.1.0]hexan-3-yl)quinoline-8-carbonitrile]",< 0.1
11,"N#Cc1ccc(N2C[C@]3(c4nnc(C5CCOCC5)o4)C[C@]3(C(F)(F)F)C2)c2cccnc12 [Compound 12, 5-((1S,5R)-1-(5-(tetrahydro-2H-pyran-4-yl)-1,3,4-oxadiazol-2-yl)-5-(trifluoromethyl)-3-azabicyclo[3.1.0]hexan-3-yl)quinoline-8-carbonitrile]",< 0.1
12,"CN1CC2(CCC(c3nnc([C@]45CN(c6ccc(C#N)c7ncccc67)C[C@@]4(C(F)(F)F)C5)o3)CC2)C1 [Compound 13, 5-((1S,5R)-1-(5-(2-methyl-2-azaspiro[3.5]nonan-7-yl)-1,3,4-oxadiazol-2-yl)-5-(trifluoromethyl)-3-azabicyclo[3.1.0]hexan-3-yl)quinoline-8-carbonitrile]",< 0.1
13,"CN1CC2CC1CC2c1nnc([C@]23CN(c4ccc(C#N)c5ncccc45)C[C@@]2(C(F)(F)F)C3)o1 (stereo partly drawn) [Compound 14, 5-((1S,5R)-1-(5-(2-methyl-2-azabicyclo[2.2.1]heptan-5-yl)-1,3,4-oxadiazol-2-yl)-5-(trifluoromethyl)-3-azabicyclo[3.1.0]hexan-3-yl)quinoline-8-carbonitrile]",< 0.1
14,"CN1CCC(Oc2nnc([C@]34CN(c5ccc(C#N)c6ncccc56)C[C@@]3(C(F)(F)F)C4)o2)CC1 [Compound 15, 5-((1S,5R)-1-(5-((1-methylpiperidin-4-yl)oxy)-1,3,4-oxadiazol-2-yl)-5-(trifluoromethyl)-3-azabicyclo[3.1.0]hexan-3-yl)quinoline-8-carbonitrile]",< 0.1
15,"N#Cc1ccc(N2C[C@]3(c4nnc(C5CCN(CC(N)=O)CC5)o4)C[C@]3(C(F)(F)F)C2)c2cccnc12 [Compound 17, 2-(4-(5-((1S,5R)-3-(8-cyanoquinolin-5-yl)-5-(trifluoromethyl)-3-azabicyclo[3.1.0]hexan-1-yl)-1,3,4-oxadiazol-2-yl)piperidin-1-yl)acetamide]",< 0.1
16,"N#Cc1ccc(N2C[C@]3(c4nnc(C5CC6(CNC6)C5)o4)C[C@]3(C(F)(F)F)C2)c2cccnc12 [Compound 18, 5-((1S,5R)-1-(5-(2-azaspiro[3.3]heptan-6-yl)-1,3,4-oxadiazol-2-yl)-5-(trifluoromethyl)-3-azabicyclo[3.1.0]hexan-3-yl)quinoline-8-carbonitrile]",< 0.1
17,"CN1CC2(CC(c3nnc([C@]45CN(c6ccc(C#N)c7ncccc67)C[C@@]4(C(F)(F)F)C5)o3)C2)C1 [Compound 19, 5-((1S,5R)-1-(5-(2-methyl-2-azaspiro[3.3]heptan-6-yl)-1,3,4-oxadiazol-2-yl)-5-(trifluoromethyl)-3-azabicyclo[3.1.0]hexan-3-yl)quinoline-8-carbonitrile]",< 0.1
18,"N#Cc1ccc(N2C[C@]3(c4nnc([C@H]5CC[C@H](N)CC5)o4)C[C@]3(C(F)(F)F)C2)c2cccnc12 [Compound 20, 5-((1S,5R)-1-(5-((1R,4S)-4-aminocyclohexyl)-1,3,4-oxadiazol-2-yl)-5-(trifluoromethyl)-3-azabicyclo[3.1.0]hexan-3-yl)quinoline-8-carbonitrile]",< 0.1
